Some test systems named below: PC-3 prostate; K-562 leukemia; HCC-2998 colon; SNB-19 CNS; IGROV1 ovarian; SN12C renal; LOX IMVI melanoma; RPMI-8226 leukemia; HCT-15 colon; SF-295 CNS.
Experiment in all cases: inhibition of tumour cell growth, NCI panel, 48 h

Data on 8 compounds can be found in PubChem BioAssay (NCI).

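Where inhibition never reached the appropriate level, the endpoint shown equals the highest concentration tested. Otherwise, values were interpolated linearly from a five-concentration, 48-hour dose response in 96-well plates. The concentration for 50% growth inhibition is given as GI50. The concentration for full growth arrest is given as TGI.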 Bounds are passed on as bounds.

Take `COc1ccc(/C=C2\CN(Cc3cn(CCNc4ccnc5cc(Cl)ccc45)nn3)C/C(=C\c3ccc(OC)c(OC)c3)C2=O)cc1OC`: the GI50 with PC-3 prostate is 3.57 µM; with K-562 leukemia it was 3.21 µM; with HCC-2998 colon it was 1.96 µM; with SNB-19 CNS, 3.59 µM; in the experiment with IGROV1 ovarian it was 2.67 µM; in the experiment on SN12C renal, 2.36 µM. The GI50 with LOX IMVI melanoma was 2.1 µM; with RPMI-8226 leukemia, 3 µM; in the experiment on HCT-15 colon, 6.87 µM; with SF-295 CNS, 2.41 µM. The TGI in the experiment with PC-3 prostate is > 100 µM; in the experiment with K-562 leukemia it was > 100 µM; in the experiment on HCC-2998 colon, 3.62 µM; with SNB-19 CNS it was > 100 µM; in the experiment on IGROV1 ovarian it was 7.09 µM; with SN12C renal, 6.79 µM. Further, the TGI in the experiment on LOX IMVI melanoma was 4.82 µM; with RPMI-8226 leukemia, 39 µM; in the experiment on HCT-15 colon, 38.7 µM; with SF-295 CNS it was 6.1 µM.

Consider `c1cncc(C2Nc3cccc4cccc(c34)N2)c1`, for which the GI50 in the experiment on PC-3 prostate was 18.5 µM; in the experiment on K-562 leukemia, 28.8 µM; in the experiment on HCC-2998 colon, > 100 µM; with SNB-19 CNS it was > 100 µM; with IGROV1 ovarian, 11.8 µM; with SN12C renal, 53.4 µM. Further, the GI50 in the experiment with LOX IMVI melanoma was 21.7 µM; in the experiment on RPMI-8226 leukemia it was 33.9 µM; in the experiment on HCT-15 colon it was 26.3 µM; in the experiment with SF-295 CNS, 49.7 µM. For the same compound, the TGI in the experiment on PC-3 prostate was 46.7 µM; with K-562 leukemia it was > 100 µM; in the experiment with HCC-2998 colon it was > 100 µM; in the experiment on SNB-19 CNS, > 100 µM; in the experiment with IGROV1 ovarian, 25.6 µM; with SN12C renal it was > 100 µM. Besides, the TGI in the experiment on LOX IMVI melanoma was 57.6 µM; with RPMI-8226 leukemia it was > 100 µM; with HCT-15 colon, > 100 µM; in the experiment with SF-295 CNS it was > 100 µM.

Consider `Cc1ccc(C2=C(c3ccc(C)cc3)C3(c4ccc(C)cc4)C4C(=O)c5ccccc5C(=O)C4C2(c2ccc(C)cc2)S3=O)cc1` (centres undefined), for which the GI50 in the experiment on PC-3 prostate was > 100 µM; with K-562 leukemia, > 100 µM; in the experiment with HCC-2998 colon, > 100 µM; with SNB-19 CNS, 63.7 µM; in the experiment on IGROV1 ovarian it was > 100 µM; with SN12C renal, > 100 µM. For the same compound, the GI50 in the experiment on LOX IMVI melanoma, with RPMI-8226 leukemia, with HCT-15 colon and in the experiment with SF-295 CNS was > 100 µM throughout. Further, the TGI in the experiment on PC-3 prostate, in the experiment with K-562 leukemia, in the experiment on HCC-2998 colon, in the experiment on SNB-19 CNS, with IGROV1 ovarian and with SN12C renal was > 100 µM in each case. Moreover, the TGI in the experiment with LOX IMVI melanoma, with RPMI-8226 leukemia, with HCT-15 colon and in the experiment on SF-295 CNS was > 100 µM throughout.

Take `C/C(=N\NC(=S)N1CC2CCC(CC2)C1)c1cccc(C)n1`: the TGI turned out to be 15.6 µM with PC-3 prostate; 19.1 µM in the experiment with HCC-2998 colon; 14.3 µM in the experiment on SNB-19 CNS; 13.9 µM in the experiment on IGROV1 ovarian; 12.6 µM in the experiment on SN12C renal; 8.16 µM in the experiment with LOX IMVI melanoma. Further, the TGI with RPMI-8226 leukemia is 17.1 µM; with HCT-15 colon it was 17.4 µM; with SF-295 CNS, 13.1 µM. The GI50 with K-562 leukemia was < 0.0001 µM; in the experiment with SNB-19 CNS, 0.26 µM; in the experiment with SN12C renal it was 0.774 µM; in the experiment with LOX IMVI melanoma, 0.179 µM; with RPMI-8226 leukemia, 0.16 µM; in the experiment on HCT-15 colon, 0.307 µM.

`Nc1nc(N)c2c(n1)NC(c1ccccc1)C1CCc3ccccc3C1=N2` (centres undefined): the GI50 is 2.82 µM in the experiment on PC-3 prostate; 3.42 µM in the experiment with K-562 leukemia; 3.82 µM in the experiment on HCC-2998 colon; 15.6 µM with SNB-19 CNS; 4.45 µM in the experiment with IGROV1 ovarian; 7.33 µM in the experiment on SN12C renal. Besides, the GI50 in the experiment on LOX IMVI melanoma was 3.79 µM; with RPMI-8226 leukemia, 3.21 µM; in the experiment on HCT-15 colon, 4.06 µM; in the experiment with SF-295 CNS, 1.69 µM. Further, the TGI with PC-3 prostate amounted to 47.7 µM; in the experiment on HCC-2998 colon, 15.6 µM; in the experiment with SNB-19 CNS, 29.8 µM; with IGROV1 ovarian, 19.4 µM; in the experiment on SN12C renal, 21.3 µM; with LOX IMVI melanoma, 15.1 µM. Also, the values for the TGI with RPMI-8226 leukemia, with HCT-15 colon and in the experiment with SF-295 CNS were 87.1 µM, 17.1 µM and 8.12 µM, respectively.

For `N#Cc1c(N)nc(N)nc1N[C@H](c1nc2c(F)ccc(Cl)c2c(=O)n1-c1cccnc1)C1CC1`, the GI50 with PC-3 prostate is 2.3 µM; with K-562 leukemia it was 31.8 µM; in the experiment with HCC-2998 colon, 12.7 µM; with SNB-19 CNS it was 13 µM; in the experiment with IGROV1 ovarian, 1.22 µM; in the experiment with SN12C renal, 10.8 µM. Further, the GI50 with LOX IMVI melanoma is 5.51 µM; with RPMI-8226 leukemia, 19 µM; in the experiment on HCT-15 colon, 14.9 µM; with SF-295 CNS it was 1.18 µM. The TGI in the experiment on PC-3 prostate was 29.3 µM; with K-562 leukemia, > 100 µM; in the experiment on HCC-2998 colon it was 28.4 µM; with SNB-19 CNS it was 28.6 µM; in the experiment with IGROV1 ovarian, 5.31 µM; in the experiment with SN12C renal, > 100 µM. For the same compound, the TGI stood at 20.1 µM in the experiment on LOX IMVI melanoma, 46.4 µM in the experiment on RPMI-8226 leukemia, 56.7 µM in the experiment with HCT-15 colon and 13.2 µM in the experiment with SF-295 CNS.

As for `CCCCN(CCCC)CCC(O)c1cc2c(Cl)cc(Cl)cc2c2cc(C(F)(F)F)ccc12` (centres undefined), the TGI in the experiment on PC-3 prostate amounted to 22.2 µM; in the experiment with K-562 leukemia it was 22.4 µM; in the experiment with HCC-2998 colon, 24.2 µM; in the experiment on SNB-19 CNS it was 40.6 µM; in the experiment on IGROV1 ovarian, 26.5 µM; in the experiment with SN12C renal it was 20 µM. Further, the TGI is 21.9 µM in the experiment with LOX IMVI melanoma, 28.4 µM in the experiment on RPMI-8226 leukemia, 19.1 µM with HCT-15 colon and 25.4 µM in the experiment on SF-295 CNS.

For `C[C@]12CC[C@H]3[C@@H](C[C@@H]4SC(Nc5ccccc5)=N[C@@]45CC(O)CC[C@]35C)[C@@H]1CCC2O` (some centres undefined), the GI50 with PC-3 prostate was 2.37 µM; in the experiment with K-562 leukemia, 2.45 µM; with HCC-2998 colon, 1.97 µM; with SNB-19 CNS, 1.86 µM; with IGROV1 ovarian, 2.78 µM; in the experiment on SN12C renal, 1.65 µM. In addition, the GI50 in the experiment with LOX IMVI melanoma was 1.33 µM; with RPMI-8226 leukemia, 0.465 µM; in the experiment on HCT-15 colon, 1.6 µM; with SF-295 CNS, 1.06 µM. The TGI turned out to be 5.85 µM in the experiment on PC-3 prostate; 12.6 µM with K-562 leukemia; 3.56 µM in the experiment with HCC-2998 colon; 3.77 µM in the experiment on SNB-19 CNS; 7.85 µM in the experiment on IGROV1 ovarian; 3.28 µM with SN12C renal. In addition, the TGI with LOX IMVI melanoma came to 2.77 µM; in the experiment on RPMI-8226 leukemia, 2.47 µM; in the experiment with HCT-15 colon it was 5.15 µM; in the experiment on SF-295 CNS, 2.98 µM.
